One may read the EC50 as the concentration giving half of the maximal effect. A higher EC50 goes with a need for much substance. Broadly, the IC50 is the concentration that gives 50% inhibition.

Data set [1] has as its target T1, NPEPPS (Homo sapiens, UniProt P55786).
T1 construct: endogenous in cells; host or cells: HEK293T
Put plainly: Cell-based NPEPPS activity assay (Q-AMC fluorescence). The settings on record: log10 transformed; EC50 = concentration that elevates 50% NPEPPS activity (150% of DMSO baseline); HEK293T cells. A digest of the protocol:
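HEK293T cells (16,500/well) on poly-L-ornithine in minimal medium with compounds in 20-step 2-fold dilution for 24 h, then H-Gln-AMC added (30 μl of 200 μM). Fluorescence (ex/em 360/460 nm) read at addition and 3 h later; change in fluorescence taken as NPEPPS activity, giving EC50 versus DMSO control.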

The subject of data set [2] is HEK293T cells. Put plainly: Cell viability assay (CellTiter Glo). It is filed as cell-based, human. The settings on record: for IC50: Homo sapiens, HEK-293T, log10 transformed, IC50 = concentration that suppresses 50% cell viability, HEK293T cells; for Therapeutic index: ratio of IC50 (cell viability) over EC50 (NPEPPS activity). A digest of the protocol:
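HEK293T cells seeded at 16,500 per well on poly-L-ornithine in minimal medium with amino acids, vitamins and AlbuMax in HBS, with compound added as a 20-step 2-fold dilution. CellTiter Glo luminescence was read after 24 h. Viability is the signal normalized to DMSO control.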
Background: ATP-based viability assays read luminescence as a measure of living cells.

T1 sequence (P55786 whole entry): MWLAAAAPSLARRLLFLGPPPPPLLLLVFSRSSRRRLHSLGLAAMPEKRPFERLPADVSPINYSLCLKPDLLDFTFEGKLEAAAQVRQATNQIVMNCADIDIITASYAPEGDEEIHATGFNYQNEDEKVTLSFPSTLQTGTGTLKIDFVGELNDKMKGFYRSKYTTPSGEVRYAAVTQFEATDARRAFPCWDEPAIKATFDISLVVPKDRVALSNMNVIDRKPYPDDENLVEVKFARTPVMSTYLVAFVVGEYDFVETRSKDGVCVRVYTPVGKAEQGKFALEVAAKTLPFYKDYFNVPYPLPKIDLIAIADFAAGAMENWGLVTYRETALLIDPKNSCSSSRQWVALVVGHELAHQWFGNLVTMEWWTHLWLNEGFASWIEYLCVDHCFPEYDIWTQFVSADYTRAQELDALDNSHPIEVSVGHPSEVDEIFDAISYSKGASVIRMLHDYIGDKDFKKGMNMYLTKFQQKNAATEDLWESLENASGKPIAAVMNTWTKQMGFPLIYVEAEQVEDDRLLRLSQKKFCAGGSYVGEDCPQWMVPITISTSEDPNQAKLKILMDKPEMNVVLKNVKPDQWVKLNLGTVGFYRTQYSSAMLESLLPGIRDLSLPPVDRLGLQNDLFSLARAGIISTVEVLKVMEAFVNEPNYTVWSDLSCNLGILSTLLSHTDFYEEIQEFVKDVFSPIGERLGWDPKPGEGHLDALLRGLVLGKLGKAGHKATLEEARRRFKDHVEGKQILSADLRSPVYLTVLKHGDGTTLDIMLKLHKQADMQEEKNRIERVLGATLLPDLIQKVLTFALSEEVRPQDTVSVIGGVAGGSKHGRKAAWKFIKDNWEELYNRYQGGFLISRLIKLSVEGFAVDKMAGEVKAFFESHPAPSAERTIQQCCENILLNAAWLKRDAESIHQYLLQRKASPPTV

In turn, `Clc1ccc(COc2ccc(CNc3nsc4ccc(OCc5ccccc5)cc34)cc2)cc1` [JMM112, 5-(Benzyloxy)-N-(4-((4-chlorobenzyl)oxy)benzyl)benzo[d]isothiazol-3-amine] had an EC50 in data set [1] of 5.5 µM. In data set [2], the IC50 was 23.4 µM and the Therapeutic index came to 4.29.

`Brc1ccc(COc2ccc(CNc3nsc4ccc(OCc5ccccc5)cc34)cc2)cc1` [JMM113, 5-(Benzyloxy)-N-(4-((4-bromobenzyl)oxy)benzyl)benzo[d]isothiazol-3-amine]: the EC50 in data set [1] is 4.47 µM. Moreover, in data set [2], the IC50 was 18.6 µM and the Therapeutic index is recorded as 4.18.

With `Cc1ccccc1COc1ccc(CNc2nsc3ccc(OCc4ccccc4)cc23)cc1` [JMM114, 5-(Benzyloxy)-N-(4-((2-methylbenzyl)oxy)benzyl)benzo[d]isothiazol-3-amine], in data set [1], the concentration for a half-maximal effect (EC50) is 26.3 µM. In addition, in data set [2], the IC50 is 63.1 µM and the Therapeutic index was 2.42.

In data set [1], `c1ccc(COc2ccc3snc(NCc4ccc(Oc5ccccc5)cc4)c3c2)cc1` [JMM115, 5-(Benzyloxy)-N-(4-phenoxybenzyl)benzo[d]isothiazol-3-amine] gave an EC50 of 44.7 µM. Besides, in data set [2], the IC50 was 263 µM and the Therapeutic index came to 5.83.

Take `Fc1ccc(COc2ccc(CNc3nsc4ccc(OCc5ccccc5)cc34)cc2)cc1` [JMM117, 5-(Benzyloxy)-N-(4-((4-fluorobenzyl)oxy)benzyl)benzo[d]isothiazol-3-amine]: in data set [1], the midpoint of the response, the EC50, lay at 57.5 µM. Also, in data set [2], it took 110 µM to reach half-maximal inhibition (IC50) and the Therapeutic index turned out to be 1.88.

Take `Fc1ccccc1COc1ccc(CNc2nsc3ccc(OCc4ccccc4)cc23)cc1` [JMM118, 5-(Benzyloxy)-N-(4-((2-fluorobenzyl)oxy)benzyl)benzo[d]isothiazol-3-amine]: in data set [1], the EC50 is 25.7 µM. In addition, in data set [2], the IC50 was 15.5 µM and the Therapeutic index is 0.60.

In data set [1], `c1ccc(COc2ccc3snc(NCc4cccs4)c3c2)cc1` [JMM119, 5-(Benzyloxy)-N-(thiophen-2-ylmethyl)benzo[d]isothiazol-3-amine] gave a half-maximal effective concentration (EC50) of 120 µM. For the same molecule, in data set [2], it took 501 µM to reach half-maximal inhibition (IC50) and the Therapeutic index stood at 4.20.

Molecule `FC(F)(F)c1ccc(COc2ccc(CNc3nsc4ccc(OCc5ccccc5)cc34)cc2)cc1` [JMM121, 5-(Benzyloxy)-N-(4-((4-(trifluoromethyl)benzyl)oxy)benzyl)benzo[d]isothiazol-3-amine] had an EC50 in data set [1] of 15.8 µM. In data set [2], half-maximal inhibition (IC50) was put at 295 µM and the Therapeutic index is 18.30.

Molecule `c1ccc(CNc2ccc(CNc3nsc4ccc(OCc5ccccc5)cc34)cc2)cc1` [JMM122, N-(4-(Benzylamino)benzyl)-5-(benzyloxy)benzo[d]isothiazol-3-amine] gave an EC50 in data set [1] of 4.68 µM. Also, in data set [2], the IC50 is 324 µM and the Therapeutic index is on record as 69.07.

`CN(Cc1ccccc1)c1ccc(CNc2nsc3ccc(OCc4ccccc4)cc23)cc1` [JMM125, N-(4-(Benzyl(methyl)amino)benzyl)-5-(benzyloxy)benzo[d]isothiazol-3-amine] had an EC50 in data set [1] of 40.7 µM. Also, in data set [2], 603 µM corresponded to half-maximal inhibition (IC50) and the Therapeutic index worked out at 14.75.

Turning to `c1ccc(COc2ccc3snc(NCc4ccc(OCC5CCCCC5)cc4)c3c2)cc1` [JMM127, 5-(Benzyloxy)-N-(4-(cyclohexylmethoxy)benzyl)benzo[d]isothiazol-3-amine], the EC50 in data set [1] is 11.5 µM. Also, in data set [2], half-maximal inhibition (IC50) required 15.8 µM and the Therapeutic index is on record as 1.38.

The molecule `c1ccc(COc2ccc3snc(NCc4ccc(OCC5CCC5)cc4)c3c2)cc1` [JMM128, 5-(Benzyloxy)-N-(4-(cyclobutylmethoxy)benzyl)benzo[d]isothiazol-3-amine] gave an EC50 in data set [1] of 4.47 µM. In addition, in data set [2], the IC50 was 9.55 µM and the Therapeutic index is given as 2.12.

Molecule `Clc1ccc2snc(NCc3ccc(OCc4ccccc4)cc3)c2c1` [JMM129, N-(4-(Benzyloxy)benzyl)-5-chlorobenzo[d]isothiazol-3-amine] showed an EC50 in data set [1] of 27.5 µM. Moreover, in data set [2], half-maximal inhibition (IC50) was put at 661 µM and the Therapeutic index came out at 24.01.

For the molecule `Fc1ccc2snc(NCc3ccc(OCc4ccccc4)cc3)c2c1` [JMM130, N-(4-(Benzyloxy)benzyl)-5-fluorobenzo[d]isothiazol-3-amine], the EC50 in data set [1] is 63.1 µM. In data set [2], 224 µM corresponded to half-maximal inhibition (IC50) and the Therapeutic index is 3.56.

Take `FC(F)(F)c1ccc(COc2ccc3snc(NCc4ccc(OCc5ccccc5)cc4)c3c2)cc1` [JMM131, N-(4-(Benzyloxy)benzyl)-5-((4-(trifluoromethyl)benzyl)oxy)benzo[d]isothiazol-3-amine]: the EC50 in data set [1] was 61.7 µM. For the same molecule, in data set [2], the midpoint of inhibition, the IC50, lay at 355 µM and the Therapeutic index came to 5.78.

In turn, `c1ccc(COc2ccc3snc(NCc4ccc(OCc5cccs5)cc4)c3c2)cc1` [JMM132, 5-(Benzyloxy)-N-(4-(thiophen-2-ylmethoxy)benzyl)benzo[d]isothiazol-3-amine] showed an EC50 in data set [1] of 5.13 µM. In data set [2], it took 12 µM to reach half-maximal inhibition (IC50) and the Therapeutic index is 2.36.

In data set [1], `FC(F)(F)c1ccc(CN(CC2CC2)c2nsc3ccccc23)cc1` [JMM133, N-(Cyclopropylmethyl)-N-(4-(trifluoromethyl)benzyl)benzo[d]isothiazol-3-amine] showed an EC50 of 5.5 µM. Besides, in data set [2], half-maximal inhibition (IC50) required 20.9 µM and the Therapeutic index came to 3.78.

In turn, `FC(F)(F)c1ccc2snc(NCc3ccc(OCc4ccccc4)cc3)c2c1` [JMM134, N-(4-(Benzyloxy)benzyl)-5-(trifluoromethyl)benzo[d]isothiazol-3-amine] showed an EC50 in data set [1] of 13.8 µM. In data set [2], it took 257 µM to reach half-maximal inhibition (IC50) and the Therapeutic index turned out to be 18.60.

`c1ccc(COc2ccc3snc(NCc4ccc(OCC5CC5)cc4)c3c2)cc1` [JMM135, 5-(Benzyloxy)-N-(4-(cyclopropylmethoxy)benzyl)benzo[d]isothiazol-3-amine]: the EC50 in data set [1] was 4.17 µM. Also, in data set [2], the IC50 is 6.46 µM and the Therapeutic index was determined as 1.54.

As to `CCCCCCN(Cc1ccc(C(F)(F)F)cc1)c1nsc2ccccc12` [JMM136, N-Hexyl-N-(4-(trifluoromethyl)benzyl)benzo[d]isothiazol-3-amine], the EC50 in data set [1] was 8.51 µM. Further, in data set [2], it took 13.5 µM to reach half-maximal inhibition (IC50) and the Therapeutic index worked out at 1.60.

Turning to `FC(F)(F)c1ccc(CNc2nsc3ccc(OCc4ccc(C(F)(F)F)cc4)cc23)cc1` [JMM137, N-(4-(Trifluoromethyl)benzyl)-5-((4-(trifluoromethyl)benzyl)oxy)benzo[d]isothiazol-3-amine], a half-maximal effect in data set [1] (EC50) was put at 11.7 µM. For the same molecule, in data set [2], the IC50 was 38.9 µM and the Therapeutic index is listed as 3.30.

On to `FC(F)(F)c1ccc(CNc2nsc3ccc(Cl)cc23)cc1` [JMM138, 5-Chloro-N-(4-(trifluoromethyl)benzyl)benzo[d]isothiazol-3-amine], for which the EC50 in data set [1] was 22.9 µM. Further, in data set [2], the 50% inhibitory concentration (IC50) is 25.1 µM and the Therapeutic index amounted to 1.10.

In the case of `Fc1ccc2snc(NCc3ccc(C(F)(F)F)cc3)c2c1` [JMM139, 5-Fluoro-N-(4-(trifluoromethyl)benzyl)benzo[d]isothiazol-3-amine], in data set [1], the response was half-maximal at 26.9 µM (EC50). Also, in data set [2], half-maximal inhibition (IC50) required 36.3 µM and the Therapeutic index was found to be 1.36.

Source of the values: patent publication US20240174625A1, “COMPOSITIONS AND METHODS FOR TREATING TAUOPATHIES” (The Regents of the University of California, priority 2021, published 2024).
